Patent publication US20240010634A1, “PYRIMIDINYL SULFONAMIDES AS INHIBITORS OF ACK1/TNK2 TYROSINE KINASE” (H. LEE MOFFITT CANCER CENTER AND RESEARCH INSTITUTE, INC., priority 2020, published 2024)
Several values for one entry are separate records, joined by “and”; a condition that tells them apart may be missing. Identical values can stand only once.

Assays:
ACK1 [1] = target: T1, ACK1 (Homo sapiens (Human), UniProt Q07912); assay: Reaction Biology 33P Hotspot assay; type: biochemical
ACK1 [2] = target: T1, ACK1; assay: ACK1 IC50 (Table 1, method not described); type: biochemical
UKE1 = assay: Cell viability (UKE1); type: cell-based
MDA-MB-231 = assay: Cell viability (MDA-MB-231); type: cell-based; conditions: Homo sapiens

T1 sequence (Q07912 whole entry): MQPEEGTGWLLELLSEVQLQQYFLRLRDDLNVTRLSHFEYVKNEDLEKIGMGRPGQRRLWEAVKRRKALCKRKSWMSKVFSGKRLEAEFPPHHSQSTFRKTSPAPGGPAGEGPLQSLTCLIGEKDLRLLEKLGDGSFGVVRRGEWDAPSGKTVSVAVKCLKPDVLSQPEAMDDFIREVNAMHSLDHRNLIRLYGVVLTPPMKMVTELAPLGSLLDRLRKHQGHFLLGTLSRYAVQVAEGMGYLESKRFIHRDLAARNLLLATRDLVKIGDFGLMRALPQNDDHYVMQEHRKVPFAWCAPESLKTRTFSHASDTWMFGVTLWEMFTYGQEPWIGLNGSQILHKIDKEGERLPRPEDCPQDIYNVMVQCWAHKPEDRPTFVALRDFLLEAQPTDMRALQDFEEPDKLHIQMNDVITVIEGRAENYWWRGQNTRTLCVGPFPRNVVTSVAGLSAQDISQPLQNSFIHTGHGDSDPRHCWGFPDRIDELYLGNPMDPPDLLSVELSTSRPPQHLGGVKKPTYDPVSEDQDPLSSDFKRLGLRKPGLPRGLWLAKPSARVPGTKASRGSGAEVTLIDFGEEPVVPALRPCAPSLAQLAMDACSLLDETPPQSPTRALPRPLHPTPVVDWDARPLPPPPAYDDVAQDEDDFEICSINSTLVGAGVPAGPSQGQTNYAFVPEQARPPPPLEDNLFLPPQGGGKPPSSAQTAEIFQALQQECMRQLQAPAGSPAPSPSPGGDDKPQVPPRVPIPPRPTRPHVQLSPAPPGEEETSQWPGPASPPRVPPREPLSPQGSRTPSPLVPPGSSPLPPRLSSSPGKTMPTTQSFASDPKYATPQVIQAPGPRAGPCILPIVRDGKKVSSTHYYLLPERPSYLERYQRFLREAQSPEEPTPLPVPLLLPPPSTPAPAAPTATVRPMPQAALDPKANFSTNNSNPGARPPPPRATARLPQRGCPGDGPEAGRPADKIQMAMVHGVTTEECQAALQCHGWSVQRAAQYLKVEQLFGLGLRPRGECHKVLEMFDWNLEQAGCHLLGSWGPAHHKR

| Compound | IC50 (ACK1 [1]) | other results |
| --- | --- | --- |
| Cc1cnc(Nc2ccc(OCC3CCOCC3)cc2)nc1Nc1cccc(NS(=O)(=O)C(C)(C)C)c1 [2-methyl-N-(3-((5-methyl-2-((4-((tetrahydro-2H-pyran-4-yl)methoxy)phenyl)amino)pyrimidin-4-yl)amino)phenyl)propane-2-sulfonamide] | 26 nM | – |
| COc1cc(N2CCN(C)CC2)ccc1Nc1ncc(C)c(Nc2ccc(Cl)c(NS(=O)(=O)C(C)(C)C)c2)n1 [N-(2-chloro-5-((2-((2-methoxy-4-(4-methylpiperazin-1-yl)phenyl)amino)-5-methylpyrimidin-4-yl)amino)phenyl)-2-methylpropane-2-sulfonamide] | – | IC50 (ACK1 [2]): 33.2 nM |
| Cc1cnc(Nc2ccc(N3CCN(C)CC3)c(OC(C)C)c2)nc1Nc1ccc(Cl)c(NS(=O)(=O)C(C)(C)C)c1 [N-(2-chloro-5-((2-((3-isopropoxy-4-(4-methylpiperazin-1-yl)phenyl)amino)-5-methylpyrimidin-4-yl)amino)phenyl)-2-methylpropane-2-sulfonamide] | 14 nM | EC50 (UKE1): 850 nM; EC50 (MDA-MB-231): 220 nM |
| Cc1cnc(Nc2ccc(N3CCN(C)CC3)cc2OC2CCC2)nc1Nc1cccc(NS(=O)(=O)C(C)(C)C)c1 [N-(3-((2-((2-cyclobutoxy-4-(4-methylpiperazin-1-yl)phenyl)amino)-5-methylpyrimidin-4-yl)amino)phenyl)-2-methylpropane-2-sulfonamide] | 26.2 nM | – |
| Cc1cnc(Nc2ccc(-c3cnn(C)c3)cc2OC(C)C)nc1Nc1cccc(NS(=O)(=O)C(C)(C)C)c1 [N-(3-((2-((2-isopropoxy-4-(1-methyl-1H-pyrazol-4-yl)phenyl)amino)-5-methylpyrimidin-4-yl)amino)phenyl)-2-methylpropane-2-sulfonamide] | 149 nM | – |
| COc1cc(-c2cnn(C)c2)ccc1Nc1ncc(C)c(Nc2cccc(NS(=O)(=O)C(C)(C)C)c2)n1 [N-(3-((2-((2-methoxy-4-(1-methyl-1H-pyrazol-4-yl)phenyl)amino)-5-methylpyrimidin-4-yl)amino)phenyl)-2-methylpropane-2-sulfonamide] | 15.2 nM | – |
| COc1cc(-n2cccn2)ccc1Nc1ncc(C)c(Nc2cccc(NS(=O)(=O)C(C)(C)C)c2)n1 [N-(3-((2-((2-methoxy-4-(1H-pyrazol-1-yl)phenyl)amino)-5-methylpyrimidin-4-yl)amino)phenyl)-2-methylpropane-2-sulfonamide] | 19.8 nM | EC50 (UKE1): > 10000 nM; EC50 (MDA-MB-231): 11000 nM |
| COc1cc(N2CCN(C)CC2)ccc1Nc1ncc(C)c(Nc2cccc(NS(=O)(=O)C(C)(C)C)c2)n1 [N-(3-((2-((2-methoxy-4-(4-methylpiperazin-1-yl)phenyl)amino)-5-methylpyrimidin-4-yl)amino)phenyl)-2-methylpropane-2-sulfonamide] | 21.9 nM | IC50 (ACK1 [2]): 34.5 nM |
| COc1c(Nc2ncc(C)c(Nc3cccc(NS(=O)(=O)C(C)(C)C)c3)n2)ccc(N2CCN(C)CC2)c1F [N-(3-((2-((3-fluoro-2-methoxy-4-(4-methylpiperazin-1-yl)phenyl)amino)-5-methylpyrimidin-4-yl)amino)phenyl)-2-methylpropane-2-sulfonamide] | 37.6 nM | – |
| Cc1cnc(Nc2ccc(-c3cnn(C)c3)c(OC(C)C)c2)nc1Nc1cccc(NS(=O)(=O)C(C)(C)C)c1 [N-(3-((2-((3-isopropoxy-4-(1-methyl-1H-pyrazol-4-yl)phenyl)amino)-5-methylpyrimidin-4-yl)amino)phenyl)-2-methylpropane-2-sulfonamide] | 26 nM | – |
| Cc1cnc(Nc2ccc(N3CCN(C)CC3)c(OC(C)C)c2)nc1Nc1cccc(NS(=O)(=O)C(C)(C)C)c1 [N-(3-((2-((3-isopropoxy-4-(4-methylpiperazin-1-yl)phenyl)amino)-5-methylpyrimidin-4-yl)amino)phenyl)-2-methylpropane-2-sulfonamide] | 13 nM and 13.8 nM | EC50 (UKE1): 470 nM; EC50 (MDA-MB-231): 213 nM |
| COc1cc(Nc2ncc(C)c(Nc3cccc(NS(=O)(=O)C(C)(C)C)c3)n2)ccc1-c1cnn(C)c1 [N-(3-((2-((3-methoxy-4-(1-methyl-1H-pyrazol-4-yl)phenyl)amino)-5-methylpyrimidin-4-yl)amino)phenyl)-2-methylpropane-2-sulfonamide] | 19 nM | – |
| COc1cc(N2CCN(C(C)=O)CC2)ccc1Nc1ncc(C)c(Nc2cccc(NS(=O)(=O)C(C)(C)C)c2)n1 [N-(3-((2-((4-(4-acetylpiperazin-1-yl)-2-methoxyphenyl)amino)-5-methylpyrimidin-4-yl)amino)phenyl)-2-methylpropane-2-sulfonamide] | 21.3 nM | – |
| CC(=O)N1CCN(c2ccc(Nc3ncc(C)c(Nc4cccc(NS(=O)(=O)C(C)(C)C)c4)n3)cc2OC(C)C)CC1 [N-(3-((2-((4-(4-acetylpiperazin-1-yl)-3-isopropoxyphenyl)amino)-5-methylpyrimidin-4-yl)amino)phenyl)-2-methylpropane-2-sulfonamide] | 13 nM | – |
| CC(=O)N1CCN(c2ccc(Nc3ncc(C)c(Nc4cccc(NS(=O)(=O)C(C)(C)C)c4)n3)cc2)CC1 [N-(3-((2-((4-(4-acetylpiperazin-1-yl)phenyl)amino)-5-methylpyrimidin-4-yl)amino)phenyl)-2-methylpropane-2-sulfonamide] | 15.3 nM | – |
| CN1CCN(c2ccc(Nc3ncc(Cl)c(Nc4cccc(NS(=O)(=O)C(C)(C)C)c4)n3)c(OC3CCC3)c2)CC1 [N-(3-((5-chloro-2-((2-cyclobutoxy-4-(4-methylpiperazin-1-yl)phenyl)amino)pyrimidin-4-yl)amino)phenyl)-2-methylpropane-2-sulfonamide] | 30 nM | – |

Further lines, with some results ahead:

| IC50 (ACK1 [1]) | Compound | other results |
| --- | --- | --- |
| 16.9 nM | COc1cc(N2CCN(C)CC2)c(F)cc1Nc1ncc(C)c(Nc2cccc(NS(=O)(=O)C(C)(C)C)c2)n1 [N-(3-((2-((5-fluoro-2-methoxy-4-(4-methylpiperazin-1-yl)phenyl)amino)-5-methylpyrimidin-4-yl)amino)phenyl)-2-methylpropane-2-sulfonamide] | – |
| 64 nM | CC(C)Oc1cc(Nc2ncc(Cl)c(Nc3cccc(NS(=O)(=O)C(C)(C)C)c3)n2)ccc1-c1cnn(C)c1 [N-(3-((5-chloro-2-((3-isopropoxy-4-(1-methyl-1H-pyrazol-4-yl)phenyl)amino)pyrimidin-4-yl)amino)phenyl)-2-methylpropane-2-sulfonamide] | – |
| 15 nM | CC(C)Oc1cc(Nc2ncc(Cl)c(Nc3cccc(NS(=O)(=O)C(C)(C)C)c3)n2)ccc1N1CCN(C)CC1 [N-(3-((5-chloro-2-((3-isopropoxy-4-(4-methylpiperazin-1-yl)phenyl)amino)pyrimidin-4-yl)amino)phenyl)-2-methylpropane-2-sulfonamide] | – |
| 7.62 nM | COc1cc(N2CCN(C)CC2)ccc1Nc1ncc(C)c(Nc2ccc(NS(=O)(=O)C(C)(C)C)cc2)n1 [N-(4-((2-((2-methoxy-4-(4-methylpiperazin-1-yl)phenyl)amino)-5-methylpyrimidin-4-yl)amino)phenyl)-2-methylpropane-2-sulfonamide] | – |
| 16.9 nM | Cc1cnc(Nc2ccc(-c3cnn(C)c3)c(OC(C)C)c2)nc1Nc1ccc(NS(=O)(=O)C(C)(C)C)cc1 [N-(4-((2-((3-isopropoxy-4-(1-methyl-1H-pyrazol-4-yl)phenyl)amino)-5-methylpyrimidin-4-yl)amino)phenyl)-2-methylpropane-2-sulfonamide] | – |
| 18.7 nM | Cc1cnc(Nc2ccc(N3CCN(C)CC3)c(OC(C)C)c2)nc1Nc1ccc(NS(=O)(=O)C(C)(C)C)cc1 [N-(4-((2-((3-isopropoxy-4-(4-methylpiperazin-1-yl)phenyl)amino)-5-methylpyrimidin-4-yl)amino)phenyl)-2-methylpropane-2-sulfonamide] | – |
| 15.9 nM | COc1cc(Nc2ncc(C)c(Nc3ccc(NS(=O)(=O)C(C)(C)C)cc3)n2)ccc1N1CCN(C)CC1 [N-(4-((2-((3-methoxy-4-(4-methylpiperazin-1-yl)phenyl)amino)-5-methylpyrimidin-4-yl)amino)phenyl)-2-methylpropane-2-sulfonamide] | – |
| 30.8 nM | COc1cc(N2CCN(C)CC2)c(F)cc1Nc1ncc(C)c(Nc2ccc(NS(=O)(=O)C(C)(C)C)cc2)n1 [N-(4-((2-((5-fluoro-2-methoxy-4-(4-methylpiperazin-1-yl)phenyl)amino)-5-methylpyrimidin-4-yl)amino)phenyl)-2-methylpropane-2-sulfonamide] | – |
| 14.8 nM | COc1cc(N2CCN(C)CC2)c(F)cc1Nc1ncc(C)c(Nc2ccc(NS(C)(=O)=O)cc2)n1 [N-(4-((2-((5-fluoro-2-methoxy-4-(4-methylpiperazin-1-yl)phenyl)amino)-5-methylpyrimidin-4-yl)amino)phenyl)methanesulfonamide] | – |
| 17.5 nM | COc1cc(N2CCN(C)CC2)ccc1Nc1ncc(Cl)c(Nc2ccc(NS(=O)(=O)C(C)(C)C)cc2)n1 [N-(4-((5-chloro-2-((2-methoxy-4-(4-methylpiperazin-1-yl)phenyl)amino)pyrimidin-4-yl)amino)phenyl)-2-methylpropane-2-sulfonamide] | – |
| 75.9 nM | CC(C)Oc1cc(Nc2ncc(Cl)c(Nc3ccc(NS(=O)(=O)C(C)(C)C)cc3)n2)ccc1-c1cnn(C)c1 [N-(4-((5-chloro-2-((3-isopropoxy-4-(1-methyl-1H-pyrazol-4-yl)phenyl)amino)pyrimidin-4-yl)amino)phenyl)-2-methylpropane-2-sulfonamide] | – |
| 15.5 nM | CC(C)Oc1cc(Nc2ncc(Cl)c(Nc3ccc(NS(=O)(=O)C(C)(C)C)cc3)n2)ccc1N1CCN(C)CC1 [N-(4-((5-chloro-2-((3-isopropoxy-4-(4-methylpiperazin-1-yl)phenyl)amino)pyrimidin-4-yl)amino)phenyl)-2-methylpropane-2-sulfonamide] | – |
| 26.7 nM | CC(C)Oc1cc(Nc2ncc(Cl)c(Nc3ccc(NS(C)(=O)=O)cc3)n2)ccc1N1CCN(C)CC1 [N-(4-((5-chloro-2-((3-isopropoxy-4-(4-methylpiperazin-1-yl)phenyl)amino)pyrimidin-4-yl)amino)phenyl)methanesulfonamide] | – |
| 17.5 nM | COc1cc(Nc2ncc(Cl)c(Nc3ccc(NS(=O)(=O)C(C)(C)C)cc3)n2)ccc1N1CCN(C)CC1 [N-(4-((5-chloro-2-((3-methoxy-4-(4-methylpiperazin-1-yl)phenyl)amino)pyrimidin-4-yl)amino)phenyl)-2-methylpropane-2-sulfonamide] | – |
